Earlier results in US20110053874A1, “USE OF FLAVONOIDE COMPOUNDS FOR THE PROPHYLAXIS AND THERAPY OF ISCHAEMIC OR INFLAMMATORY HEART AND CARDIOVASCULAR DISEASES” (BOEHRINGER INGELHEIM INTERNATIONAL GMBH, priority 2008, published 2011).

How the values were obtained:
[1] = human, oral
[2] = in vivo

Row | absorption [2] | SMILES | form present in the plasma after being taken orally and absorbed through the intestine [1]
1 |  | O=c1c(O[C@@H]2O[C@H](CO)[C@@H](O)[C@H](O)[C@H]2O)c(-c2ccc(O)c(O)c2)oc2cc(O)cc(O)c12 [quercetin glucoside, quercetin-3-O-β-D-glucoside] | almost completely in the form of their respective glucuronides
2 |  | O=c1c(O[C@@H]2O[C@H](CO)[C@@H](O)[C@H](O)[C@H]2O)c(-c2ccc(O)cc2)oc2cc(O)cc(O)c12 [kaempferol glucoside, kaempferol-3-O-β-D-glucoside] | almost completely in the form of their respective glucuronides
3 | only absorbed to a small extent | O=c1c(O)c(-c2ccc(O)c(O)c2)oc2cc(O)cc(O)c12 [Quercetin] | 
